Measured values reported in patent US9073920B2, “Substituted dibenzonaphthyridines, pharmaceutical uses thereof and processes therfor” (Purdue Research Foundation, priority 2010, dated 2015).
Where “and” joins values, the source holds several entries; their conditions need not be identical. Identical values can stand only once.

Columns and labels:
Human recombinant Top1 = biological target: T1, Human recombinant Top1 (Homo sapiens, UniProt P11387); assay: Topoisomerase I-mediated DNA cleavage reactions; format: biochemical; parameters: key to activity of the compounds to produce Top1-mediated DNA cleavage: +: weak activity; ++ and +++: moderate activity; ++ and +++: moderate activity; ++++: similar activity as 1 μM camptothecin; conditions: for Top1 inhibitory activity in Top1-mediated DNA cleavage assay: semi-quantitative scale from 0 to ++++, relative to CPT at 1 μM; for activity of the compounds to produce Top1-mediated DNA cleavage: semiquantitative, tested at 0.1 μM, 1 μM, 10 μM, 100 μM, relative to 1 μM camptothecin
T1 construct: made in house
T1 sequence (P11387 1-765): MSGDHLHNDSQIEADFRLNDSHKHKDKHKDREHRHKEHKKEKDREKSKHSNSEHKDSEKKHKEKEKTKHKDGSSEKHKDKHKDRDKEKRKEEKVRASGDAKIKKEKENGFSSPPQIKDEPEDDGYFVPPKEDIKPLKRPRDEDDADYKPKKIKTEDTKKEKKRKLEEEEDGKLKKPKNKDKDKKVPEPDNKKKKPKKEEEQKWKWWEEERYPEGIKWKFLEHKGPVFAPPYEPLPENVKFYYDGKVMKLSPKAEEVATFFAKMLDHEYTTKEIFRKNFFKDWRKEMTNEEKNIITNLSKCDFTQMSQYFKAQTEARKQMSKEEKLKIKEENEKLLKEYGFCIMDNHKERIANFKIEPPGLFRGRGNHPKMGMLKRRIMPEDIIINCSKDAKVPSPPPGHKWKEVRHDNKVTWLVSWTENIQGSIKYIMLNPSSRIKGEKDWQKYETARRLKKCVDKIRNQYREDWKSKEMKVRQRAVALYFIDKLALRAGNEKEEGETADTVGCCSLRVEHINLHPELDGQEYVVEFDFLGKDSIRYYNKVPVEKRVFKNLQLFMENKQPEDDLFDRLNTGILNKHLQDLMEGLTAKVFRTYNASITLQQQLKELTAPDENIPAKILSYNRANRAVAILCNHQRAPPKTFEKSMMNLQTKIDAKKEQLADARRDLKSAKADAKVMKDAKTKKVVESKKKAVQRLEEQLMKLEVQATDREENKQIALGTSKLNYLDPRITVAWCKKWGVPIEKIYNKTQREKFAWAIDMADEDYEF
Method: Topoisomerase I-Mediated DNA Cleavage Reactions. Human recombinant Top1 was purified from Baculovirus as described previously.^34 The 161 bp fragment from pBluescript SK(−) phagemid DNA (Stratagene, La Jolla, Calif.) was cleaved with the restriction endonucleases PvuII and HindIII (New England Biolabs, Beverly, Mass.) supplied in NE buffer 2 (50 μL reactions) for 1 h at 37° C., and separated by electrophoresis in a 1% agarose gel made in 1×TBE buffer. The 161 bp fragment was eluted from the gel slice using the QIAEX II kit (QIAGEN Inc., Valencia, Calif.). Approximately 200 ng of the fragment was 3′-end labeled at the HindIII site by fill-in reaction with [alpha-^32P]-dGTP and 0.5 mM dATP, dCTP, and dTTP, in React 2 buffer (50 mM Tris-HCl, pH 8.0, […], 50 mM NaCl) with 0.5 unit of DNA polymerase I (Klenow fragment). Unincorporated ^32P-dGTP was removed using mini Quick Spin DNA columns (Roche, Indianapolis, Ind.), and the eluate containing the 3′-end-labeled 161 bp fragment was collected. Aliquots (approximately 50,000 dpm/reaction) were incubated with topoisomerase I at 22° C. for 30 min in the presence of the tested drug. Reactions were terminated by adding SDS (0.5% final concentration). The samples (10 μL) were mixed with 30 μL of loading buffer (80% formamide, 10 mM sodium hydroxide, 1 mM sodium EDTA, 0.1% xylene cyanol, and 0.1% bromophenol blue, pH 8.0). Aliquots were separated in denaturing gels (16% polyacrylamine, 7 M urea). Gels were dried and visualized by using a Phosphoimager and ImageQuant software (Molecular Dynamics, Sunnyvale, Calif.). Each gel included a sample of DNA alone, DNA with only the drug, and DNA with Top I without the drug. The compounds described herein were tested at concentrations of 0.1 μM, 1 μM, 10 μM, 100 μM. The activity of the compounds to produce Top1-mediated DNA cleavage is expressed semiquantitatively as follows: +: weak activity; ++ and +++: moderate activity; ++++: similar activity as 1 μM camptothecin. Results: 33, 0; 34, 0; 32, ++; 31, +++; 30, +; 29, +; 28, 0; and 19, 0.
Biological Results.All of the target compounds were tested for induction of DNA damage in Top1-mediated DNA cleavage assays. The results of this assay are designated relative to the Top1 inhibitory activity of CPT and expressed in semi-quantitative fashion on the scale from 0, no detectable activity, to ++++, similar activity to that of compound 1 at a concentration of 1 μM. […] Compounds 29 and 30, containing an N-(3-morpholinylpropyl) or an N-(3-imidazolylpropyl), respectively were Top1 inhibitors, but only at the lower + level. Without being bound by theory, it is believed that the loss of Top1 inhibitory activity with expansion of the five-membered indenone ring of the indenoisoquinoline to the six-membered ring of compounds described herein might result from the decreased overall solubility, especially for 14, 19, and 28, rather than differences in intercalation between DNA base pairs at the Top1 cleavage site. With 29 and 30, incorporation of amines increased water solubility and affinity toward DNA, possibly due to attraction of their positively charged protonated amines with the phosphates of the DNA backbone.

[1] = Solubility in organic solvents; format: physicochemical; conditions: relative to their precursors 14 and 29
COLO 205 = assay: NCI screen antiproliferative activity, colon COLO 205; format: cell-based; conditions: Homo sapiens, concentration for 50% growth inhibition
Method: (§1) The antipoliferative activity of each compound was tested against 55 different human cancer cell lines in the National Cancer Institute screen.^32, 33 The chlorodibenzonaphthyridinone 32 bearing a morpholinopropyl chain on the lactam nitrogen was cytotoxic to human cancer cells at low micromolar concentrations. The cytotoxicities of 32 in selected cell lines are presented in Table 1, along with the mean graph midpoint value of 5.6 μM. In general, cytotoxicity GI50 values appeared to be in the low micromolar range, although 32 was particularly cytotoxic in the leukemia K-562 and RPMI-8226 cell lines, the ovarian IGROV1 cancer cell line, the renal UO-31 cancer cell line, and the breast MCF7 cancer cell line.

SN12C = assay: NCI screen antiproliferative activity, renal SN12C; format: cell-based; conditions: Homo sapiens, concentration for 50% growth inhibition
Method: as §1

MCF7 = assay: NCI screen antiproliferative activity, breast MCF7; format: cell-based; conditions: Homo sapiens, concentration for 50% growth inhibition
Method: as §1

IGROV1 = assay: NCI screen antiproliferative activity, ovarian IGROV1; format: cell-based; conditions: Homo sapiens, IGROV-1, concentration for 50% growth inhibition
Method: as §1

K-562 = assay: NCI screen antiproliferative activity, leukemia K-562; format: cell-based; conditions: Homo sapiens, K562, concentration for 50% growth inhibition
Method: as §1

HOP-62 = assay: NCI screen antiproliferative activity, lung HOP-62; format: cell-based; conditions: Homo sapiens, concentration for 50% growth inhibition
Method: as §1

UACC-62 = assay: NCI screen antiproliferative activity, melanoma UACC-62; format: cell-based; conditions: Homo sapiens, concentration for 50% growth inhibition
Method: as §1

UO-31 = assay: NCI screen antiproliferative activity, renal UO-31; format: cell-based; conditions: Homo sapiens, concentration for 50% growth inhibition
Method: as §1

RPMI-8226 = assay: NCI screen antiproliferative activity, leukemia RPMI-8226; format: cell-based; conditions: Homo sapiens, concentration for 50% growth inhibition
Method: as §1

[2] = tested on: all human cancer cell lines successfully tested; assay: NCI screen mean graph midpoint for growth inhibition; format: cell-based; conditions: mean over all human cancer cell lines successfully tested
Method: as §1

DU-145 = assay: NCI screen antiproliferative activity, prostate DU-145; format: cell-based; conditions: Homo sapiens, concentration for 50% growth inhibition
Method: as §1

SF-539 = assay: NCI screen antiproliferative activity, CNS SF-539; format: cell-based; conditions: Homo sapiens, concentration for 50% growth inhibition
Method: as §1

OVCAR-3 = assay: NCI screen antiproliferative activity, ovarian OVCAR-3; format: cell-based; conditions: Homo sapiens, concentration for 50% growth inhibition
Method: as §1

HCT-116 = assay: NCI screen antiproliferative activity, colon HCT-116; format: cell-based; conditions: Homo sapiens, concentration for 50% growth inhibition
Method: as §1

[3] = Top1-mediated DNA fragmentation pattern, compared with indenoisoquinolines

SMILES: COc1cc2c(=O)n(C)c3c4ccccc4[nH]c(=O)c3c2cc1OC [Compound 14, 8,9-Dimethoxy-5-methyldibenzo[c,h][1,6]naphthyridine-6,11(5H,12H)-dione]
- Top1 inhibitory activity in Top1-mediated DNA cleavage assay (Human recombinant Top1): no detectable inhibition and 0

SMILES: C=CCn1c(=O)c2cc(OC)c(OC)cc2c2c(=O)[nH]c3ccccc3c21 [Compound 19, 5-Allyl-8,9-dimethoxydibenzo[c,h][1,6]naphthyridine-6,11(5H,12H)-dione]
- Top1 inhibitory activity in Top1-mediated DNA cleavage assay (Human recombinant Top1): no detectable inhibition
- activity of the compounds to produce Top1-mediated DNA cleavage (Human recombinant Top1): 0

SMILES: COc1cc2c(=O)n(CCCO)c3c4ccccc4[nH]c(=O)c3c2cc1OC [Compound 28, 5-(3-Hydroxypropyl)-8,9-dimethoxydibenzo[c,h][1,6]naphthyridine-6,11(5H,12H)-dione]
- Top1 inhibitory activity in Top1-mediated DNA cleavage assay (Human recombinant Top1): no detectable inhibition
- activity of the compounds to produce Top1-mediated DNA cleavage (Human recombinant Top1): 0

SMILES: COc1cc2c(=O)n(CCCN3CCOCC3)c3c4ccccc4[nH]c(=O)c3c2cc1OC [Compound 29, 8,9-Dimethoxy-5-(3-morpholinopropyl)dibenzo[c,h][1,6]naphthyridine-6,11(5H,12H)-dione]
- activity of the compounds to produce Top1-mediated DNA cleavage (Human recombinant Top1): +

SMILES: COc1cc2c(=O)n(CCCn3ccnc3)c3c4ccccc4[nH]c(=O)c3c2cc1OC [Compound 30, 5-(3-(1H-Imidazol-1-yl)propyl)-8,9-dimethoxydibenzo[c,h][1,6]-naphthyridine-6,11(5H,12H)dione]
- activity of the compounds to produce Top1-mediated DNA cleavage (Human recombinant Top1): +

SMILES: COc1cc2c(=O)n(C)c3c4ccccc4nc(Cl)c3c2cc1OC [Compound 31, 11-Chloro-8,9-dimethoxy-5-methyldibenzo[c,h][1,6]naphthyridin-6(5H)-one]
- solubilities in solvents like DMSO, methanol and chloroform [1]: increased substantially
- cleavage band intensity at base pair 97 (Human recombinant Top1; [3]): more intense
- cleavage band intensity at base pairs 44 and 68 (Human recombinant Top1; [3]): weak
- activity of the compounds to produce Top1-mediated DNA cleavage (Human recombinant Top1): +++

SMILES: COc1cc2c(=O)n(CCCN3CCOCC3)c3c4ccccc4nc(Cl)c3c2cc1OC [Compound 32, 11-Chloro-8,9-dimethoxy-5-(3-morpholinopropyl)dibenzo[c,h][1,6]-naphthyridin-6(5H)-one]
- GI50 (COLO 205): 0.33 µM
- GI50 (SN12C): 13.2 µM
- GI50 (MCF7): 0.4 µM
- GI50 (IGROV1): 0.03 µM
- GI50 (K-562): 0.2 µM
- GI50 (HOP-62): 4.7 µM
- GI50 (UACC-62): 6.8 µM
- melting point: 185 to 190 °C (dec.)
- GI50 (UO-31): 0.02 µM
- GI50 (RPMI-8226): 0.1 µM
- MGM (mean GI50 across cell lines) [2]: 5.6 µM
- GI50 (DU-145): 10.5 µM
- GI50 (SF-539): 12.3 µM
- solubilities in solvents like DMSO, methanol and chloroform [1]: increased substantially
- GI50 (OVCAR-3): 6.3 µM
- DNA cleavage sites with significant band intensity (Human recombinant Top1; Top1-mediated DNA fragmentation pattern): only bands for cleavages at the 97 and 119 sites are intense enough to be significant
- activity of the compounds to produce Top1-mediated DNA cleavage (Human recombinant Top1): ++
- GI50 (HCT-116): 4.16 µM

SMILES: COc1cc2c(Cl)nc3c4ccccc4nc(Cl)c3c2cc1OC [Compound 33, 6,11-Dichloro-8,9-dimethoxydibenzo[c,h][1,6]naphthyridine]
- Top1 inhibitory activity in Top1-mediated DNA cleavage assay (Human recombinant Top1): loss of activity
- activity of the compounds to produce Top1-mediated DNA cleavage (Human recombinant Top1): 0

SMILES: COc1cc2c(OC)nc3c4ccccc4nc(OC)c3c2cc1OC [Compound 34, 6,8,9,11-Tetramethoxydibenzo[c,h][1,6]naphthyridine]
- Top1 inhibitory activity in Top1-mediated DNA cleavage assay (Human recombinant Top1): loss of activity
- activity of the compounds to produce Top1-mediated DNA cleavage (Human recombinant Top1): 0
